Experimental data taken from ChEMBL document CHEMBL1146588, “Ancistrotanzanine A, the first 5,3'-coupled naphthylisoquinoline alkaloid, and two further, 5,8'-linked related compounds from the newly described species Ancistrocladus tanzaniensis” (J Nat Prod, 2003).
≈ marks a conversion by molar mass, not a printed value.

Tests used:
[1] = tested on: Trypanosoma brucei rhodesiense; assay: Antitrypanosomal activity against Trypanosoma brucei rhodesiense; type: functional, organism-based
Plasmodium falciparum [2] = assay: Antimalarial activity against Plasmodium falciparum K1; type: functional, organism-based
Leishmania donovani = assay: Antileishmanial activity against Leishmania donovani; type: functional, organism-based
Trypanosoma cruzi = assay: Antitrypanosomal activity against Trypanosoma cruzi; type: functional, organism-based
[3] = Cytotoxicity against rat L6 cells; type: cell-based; conditions: read-out: MIC
Plasmodium falciparum [4] = assay: Antimalarial activity against Plasmodium falciparum 3D7; type: functional, organism-based

SMILES | IC50 [1] | IC50 (Plasmodium falciparum [2]) | IC50 (Leishmania donovani) | IC50 (Trypanosoma cruzi) | MCC [3] | IC50 (Plasmodium falciparum [4])
COc1cc(OC)c(-c2ccc(OC)c3c(OC)cc(C)cc23)c2c1C(C)=N[C@@H](C)C2 [ANCISTROEALAINE A] | 0.7 µg/mL (≈ 1.67 µM) | 0.3 µg/mL (≈ 0.715 µM) | 1.6 µg/mL (≈ 3.81 µM) | 1.5 µg/mL (≈ 3.58 µM) | 8.1 µg/mL | 5 µg/mL (≈ 11.9 µM)
COc1cc(OC)c(-c2c(C)cc3cccc(OC)c3c2O)c2c1C(C)=N[C@@H](C)C2 [ANCISTROTANZANINE A] | 0.7 µg/mL (≈ 1.73 µM) | 0.3 µg/mL (≈ 0.74 µM) | 1.8 µg/mL (≈ 4.44 µM) | 1.7 µg/mL (≈ 4.19 µM) | 6.4 µg/mL | 
COc1cc(OC)c2c(c1-c1ccc(OC)c3c(OC)cc(C)cc13)C[C@H](C)N[C@H]2C [ANCISTROTECTORILINE A] | 2.1 µg/mL (≈ 4.98 µM) | 0.5 µg/mL (≈ 1.19 µM) | > 10 µg/mL | 17.8 µg/mL (≈ 42.2 µM) | 6.5 µg/mL | 14 µg/mL (≈ 33.2 µM)
O=C(Cn1ccnc1[N+](=O)[O-])NCc1ccccc1 [BENZNIDAZOLE] |  |  |  | 0.42 µg/mL (≈ 1.61 µM) |  | 
Nc1nc(N)nc(Nc2ccc([As]3SCC(CO)S3)cc2)n1 (stereo not given) [MELARSOPROL] | 0.001 µg/mL |  |  |  |  | 
CCCCCCCCCCCCCCCCOP(=O)([O-])OCC[N+](C)(C)C [MILTEFOSINE] |  |  | 0.305 µg/mL (≈ 0.748 µM) |  |  | 
